Values joined by “and” are separate entries in the source; they are usually repeats but may differ in a detail not shown here. Identical values can stand only once.
Columns and labels:
[1] = system: H. pylori; details: cited from earlier work
[2] = system: different strains of H. pylori; assay: In vitro studies against different strains of H. pylori; type: cell-based, Helicobacter pylori
Text: The present disclosure is based in part on the unexpected finding of bacteriostatic and/or bacteriocidic action of fusidic acid or a pharmaceutically acceptable salt or solvate thereof (e.g. sodium fusidate) against H. pylori. […] This finding provides a significant advantage over the hitherto known treatments, by increasing the percentage of patients in which eradication is achieved, reducing doses and side effects of conventional add-on therapy, preserving gut microbiota, and decreasing exposure to conventional antibiotics thereby decreasing antibiotic resistance. In addition, fusidic acid and/or salts and solvates thereof have no cross-resistance with the existing antibiotics used for the treatment of H. pylori and have low probability for developing resistance.

[3] = system: H. pylori ATCC No. 700824; assay: Disk diffusion susceptibility of H. pylori to sodium fusidate; type: cell-based, Helicobacter pylori; details: 4 days at 37° C., sample No. = replicate disk
Procedure: (§1) In vitro testing for the susceptibility of H. pylori to sodium fusidate was performed. Inoculation was made with a broth culture of two ATCC strains of H. pylori (ATCC No. 700824 and 43826) diluted to match a 0.5 McFarland turbidity standard. Disks containing increasing antibiotic concentrations (0.5-4.0%) were placed on seeded bacterial lawn on agar surface. Three disks with the same antibiotic concentration were placed on each plate. The disks were evenly distributed in a circle towards the periphery of the plate. Plates were incubated for 4 days at an incubation temperature of 37° C. (with Microaerophilic pach). Diameter of inhibition sizes was measured wherein each disk was considered to represent the center of the clear zone, namely the slope of the regression line is construed to correspond to the diffusion coefficient of the antibiotic in the agar. Negative control disks containing water instead of antibiotics were placed at the center of each dish. A separate plate with no disks was prepared as an additional control. […]

[4] = system: H. pylori ATCC No. 43826; assay: as above; type: cell-based, Helicobacter pylori; details: 4 days at 37° C., sample No. = replicate disk
Procedure: as §1

[5] = sodium fusidate con. 0.5% on disk
[6] = sodium fusidate con. 1.0% on disk
[7] = sodium fusidate con. 4.0% on disk

Row | SMILES | Efficacy as monotherapy against H. pylori [1] | Activity against different strains of H. pylori [2] | Diameter of inhibition [3, 5] | Diameter of inhibition [3, 6] | Diameter of inhibition [3, 7] [cm] | Diameter of inhibition [4, 5] [cm] | Diameter of inhibition [4, 6] [cm] | Diameter of inhibition [4, 7] [cm]
1 | CC(=O)O[C@H]1C[C@@]2(C)[C@@H](C[C@@H](O)[C@H]3[C@@]4(C)CC[C@@H](O)[C@@H](C)[C@@H]4CC[C@@]32C)/C1=C(\CCC=C(C)C)C(=O)O [fusidic acid, 29-Nordammara-17(20),24-dien-21-oic acid, 16-(acetyloxy)-3,11-dihydroxy-, (3α, 4α, 8α, 9α, 11α, 13α, 14β, 16β, 17Z)-] | ineffective | active | – | – | – | – | – | –
2 | CC(=O)O[C@H]1C[C@@]2(C)[C@@H](C[C@@H](O)[C@H]3[C@@]4(C)CC[C@@H](O)[C@@H](C)[C@@H]4CC[C@@]32C)/C1=C(\CCC=C(C)C)C(=O)O [Sodium fusidate, sodium fusidate] | – | active | 1.6 cm and 2 cm and 2.4 cm | 2.7 cm and 2.6 cm and 3.0 cm | ≥4.4 | ≥4.4 | ≥4.4 | ≥4.4

From patent publication US11096948B2, “Methods for treating helicobacter infection” (DEXCEL PHARMA TECHNOLOGIES LTD., priority 2016, dated 2021)
